Measurements taken from patent US20260262643A1, “HERBICIDAL BENZOXAZINES” (FMC CORPORATION, priority 2022, published 2026).

Experiments:
[1] = system: ducksalad; test: Test B flooded paddy test; type: in vivo, Heteranthera limosa; conditions: 250 g ai/ha, Flood, 13 days, 0 to 100 scale (0 no effect, 100 complete control)
Outline: (§1)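 Flooded to 3 cm at treatment time, 2-leaf plants got the test compound applied straight into the paddy water. They then stayed under constant flood in a greenhouse for 13 days. Ratings used a 0 to 100 visual scale.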

[2] = system: corn; test: Test A preemergence; type: in vivo, Zea mays; conditions: 0 to 100 scale
Outline: (§2)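 Loam/sand soil; pre-em directed soil spray at planting, post-em spray at 1–2 leaf (2–10 cm). Compound in non-phytotoxic solvent + surfactant. Greenhouse 10 d; visual injury vs untreated, 0 = no effect, 100 = complete control.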

[3] = system: kochia; test: Test A preemergence; type: in vivo, Bassia scoparia; conditions: 0 to 100 scale
Outline: as §2

[4] = system: barnyardgrass; test: Test B flooded paddy test; type: in vivo, Echinochloa crus-galli; conditions: 250 g ai/ha, Flood, 13 days, 0 to 100 scale (0 no effect, 100 complete control)
Outline: as §1

[5] = system: barnyardgrass; test: Test A preemergence; type: in vivo, Echinochloa crusgalli; conditions: visual injury after 10 days, 0 to 100 scale, 0 is no effect, 100 is complete control
From the text: (§3) Seeds of plant species selected from barnyardgrass (Echinochloa crusgalli), blackgrass (Alopecurus myosuroides), corn (Zea mays), foxtail, giant (giant foxtail, Setaria faberi), goosegrass (Eleusine indica), kochia (Bassia scoparia), oat, wild (wild oat, Avena fatua), pigweed, palmer (palmer amaranth, palmer pigweed, Amaranthus palmeri), Pigweed, Redroot (redroot pigweed, Amaranthus retroflexus), ragweed (common ragweed, Ambrosia artemisiifolia), ryegrass, Italian (italian ryegrass, Lolium multiflorum), soybean (Glycine max), and wheat (Triticum aestivum) were planted into a blend of loam soil and sand and treated preemergence with a directed soil spray using test chemicals formulated in a non-phytotoxic solvent mixture which included a surfactant. At the same time, plants selected from these crops and weed species and also galium (catchweed bedstraw, Galium aparine) and horseweed (Erigeron canadensis) were planted in pots containing the same blend of loam soil and sand and treated with postemergence applications of test chemicals formulated in the same manner. Plants ranged in height from 2 to 10 cm and were in the one- to two-leaf stage for the postemergence treatment. Treated plants and untreated controls were maintained in a greenhouse for 10 days, after which time all treated plants were compared to untreated controls and visually evaluated for injury. Plant response ratings, summarized in Table A, are based on a 0 to 100 scale where 0 is no effect and 100 is complete control. A dash (-) response means no test result.

[6] = system: barnyardgrass; test: Test A postemergence; type: in vivo, Echinochloa crusgalli; conditions: postemergence, 10 days; for Barnyardgrass plant response rating: 125 g ai/ha, 0 to 100 scale, 0 no effect, 100 complete control; for Plant response rating, Barnyardgrass: 500 g ai/ha, visual injury, 0 to 100 scale (0 no effect, 100 complete control)
From the text: as §3

[7] = system: soybean; test: Test A postemergence; type: in vivo, Glycine max; conditions: postemergence, 10 days; for Soybean plant response rating: 125 g ai/ha, 0 to 100 scale, 0 no effect, 100 complete control; for Plant response rating, Soybean: 500 g ai/ha, visual injury, 0 to 100 scale (0 no effect, 100 complete control)
Outline: as §2

[8] = system: galium; test: Test A postemergence; type: in vivo, Galium aparine; conditions: postemergence, 10 days; for Galium plant response rating: 125 g ai/ha, 0 to 100 scale, 0 no effect, 100 complete control; for Plant response rating, Galium: 500 g ai/ha, visual injury, 0 to 100 scale (0 no effect, 100 complete control)
Outline: as §2

[9] = system: kochia; test: Test A postemergence; type: in vivo, Bassia scoparia; conditions: postemergence, 10 days; for Kochia plant response rating: 125 g ai/ha, 0 to 100 scale, 0 no effect, 100 complete control; for Plant response rating, Kochia: 500 g ai/ha, visual injury, 0 to 100 scale (0 no effect, 100 complete control)
Outline: as §2

[10] = system: pigweed, palmer; test: Test A preemergence; type: in vivo, Amaranthus palmeri; conditions: 0 to 100 scale
Outline: as §2

[11] = system: wheat; test: Test A postemergence; type: in vivo, Triticum aestivum; conditions: postemergence, 10 days; for Wheat plant response rating: 125 g ai/ha, 0 to 100 scale, 0 no effect, 100 complete control; for Plant response rating, Wheat: 500 g ai/ha, visual injury, 0 to 100 scale (0 no effect, 100 complete control)
Outline: as §2

[12] = system: soybean; test: Test A preemergence; type: in vivo, Glycine max; conditions: 0 to 100 scale
Outline: as §2

[13] = system: blackgrass; test: Test A preemergence; type: in vivo, Alopecurus myosuroides; conditions: 0 to 100 scale
Outline: as §2

[14] = system: rice; test: Test B flooded paddy test; type: in vivo, Oryza sativa; conditions: 250 g ai/ha, Flood, 13 days, 0 to 100 scale (0 no effect, 100 complete control)
Outline: as §1

[15] = system: horseweed; test: Test A postemergence; type: in vivo, Erigeron canadensis; conditions: postemergence, 10 days; for Horseweed plant response rating: 125 g ai/ha, 0 to 100 scale, 0 no effect, 100 complete control; for Plant response rating, Horseweed: 500 g ai/ha, visual injury, 0 to 100 scale (0 no effect, 100 complete control)
Outline: as §2

[16] = system: ragweed; test: Test A postemergence; type: in vivo, Ambrosia artemisiifolia; conditions: postemergence, 10 days; for Ragweed plant response rating: 125 g ai/ha, 0 to 100 scale, 0 no effect, 100 complete control; for Plant response rating, Ragweed: 500 g ai/ha, visual injury, 0 to 100 scale (0 no effect, 100 complete control)
Outline: as §2

[17] = system: ryegrass, Italian; test: Test A preemergence; type: in vivo, Lolium multiflorum; conditions: 0 to 100 scale
Outline: as §2

[18] = system: oat, wild; test: Test A preemergence; type: in vivo, Avena fatua; conditions: 0 to 100 scale
Outline: as §2

[19] = system: ragweed; test: Test A preemergence; type: in vivo, Ambrosia artemisiifolia; conditions: 0 to 100 scale
Outline: as §2

[20] = system: oat, wild; test: Test A postemergence; type: in vivo, Avena fatua; conditions: postemergence, 10 days; for Oat, Wild plant response rating: 125 g ai/ha, 0 to 100 scale, 0 no effect, 100 complete control; for Plant response rating, Oat, Wild: 500 g ai/ha, visual injury, 0 to 100 scale (0 no effect, 100 complete control)
Outline: as §2

[21] = system: corn; test: Test A postemergence; type: in vivo, Zea mays; conditions: postemergence, 10 days; for Corn plant response rating: 125 g ai/ha, 0 to 100 scale, 0 no effect, 100 complete control; for Plant response rating, Corn: 500 g ai/ha, visual injury, 0 to 100 scale (0 no effect, 100 complete control)
Outline: as §2

[22] = system: pigweed, palmer; test: Test A postemergence; type: in vivo, Amaranthus palmeri; conditions: postemergence, 10 days; for Pigweed, Palmer plant response rating: 125 g ai/ha, 0 to 100 scale, 0 no effect, 100 complete control; for Plant response rating, Pigweed, Palmer: 500 g ai/ha, visual injury, 0 to 100 scale (0 no effect, 100 complete control)
Outline: as §2

[23] = system: foxtail, giant; test: Test A preemergence; type: in vivo, Setaria faberi; conditions: 0 to 100 scale
Outline: as §2

[24] = system: ryegrass, Italian; test: Test A postemergence; type: in vivo, Lolium multiflorum; conditions: postemergence, 10 days; for Ryegrass, Italian plant response rating: 125 g ai/ha, 0 to 100 scale, 0 no effect, 100 complete control; for Plant response rating, Ryegrass, Italian: 500 g ai/ha, visual injury, 0 to 100 scale (0 no effect, 100 complete control)
Outline: as §2

[25] = system: blackgrass; test: Test A postemergence; type: in vivo, Alopecurus myosuroides; conditions: postemergence, 10 days; for Blackgrass plant response rating: 125 g ai/ha, 0 to 100 scale, 0 no effect, 100 complete control; for Plant response rating, Blackgrass: 500 g ai/ha, visual injury, 0 to 100 scale (0 no effect, 100 complete control)
Outline: as §2

[26] = system: wheat; test: Test A preemergence; type: in vivo, Triticum aestivum; conditions: 0 to 100 scale
Outline: as §2

[27] = system: sedge, umbrella; test: Test B flooded paddy test; type: in vivo, Cyperus difformis; conditions: 250 g ai/ha, Flood, 13 days, 0 to 100 scale (0 no effect, 100 complete control)
Outline: as §1

[28] = 500 g ai/ha, visual injury after 10 days, 0 is no effect, 100 is complete control
[29] = 125 g ai/ha, visual injury after 10 days, 0 is no effect, 100 is complete control

Cc1ccc(-n2cnc(C(C)(C)O)n2)cc1C(=O)N1C[C@H](C)Oc2c(Cl)cccc21 [Compound 149]
90: Plant response rating, Corn [2, 28] | Plant response rating, Kochia [9] | Plant response rating, Pigweed, Palmer ([10]; 125 g ai/ha) | Wheat plant response rating [11] | Plant response rating, Wheat [11] | Plant response rating, Blackgrass [13, 28] | Plant response rating, Ragweed [16] | Plant response rating, Oat, Wild ([18]; 125 g ai/ha) | Plant response rating, Oat, Wild [18, 28] | Plant response rating, Ragweed [19, 28] | Oat, Wild plant response rating [20] | Plant response rating, Oat, Wild [20] | Corn plant response rating [21] | Plant response rating, Pigweed, Palmer [22] | Blackgrass plant response rating [25] | Plant response rating, Blackgrass [25] | Plant response rating, Wheat [26, 28]
35: Plant response rating, Barnyardgrass [4]
75: Plant response rating, Ducksalad [1]
80: Kochia plant response rating [9] | Plant response rating, Blackgrass ([13]; 125 g ai/ha) | Ragweed plant response rating [16] | Pigweed, Palmer plant response rating [22] | Ryegrass, Italian plant response rating [24]
20: Plant response rating, Rice [14]
70: Plant response rating, Horseweed [15]
100: Plant response rating, Kochia ([3]; 125 g ai/ha) | Plant response rating, Kochia [3, 28] | Plant response rating, Barnyardgrass ([5]; 125 g ai/ha) | Plant response rating, Barnyardgrass ([5]; 500 g ai/ha) | Plant response rating, Barnyardgrass [6] | Soybean plant response rating [7] | Plant response rating, Soybean [7] | Galium plant response rating [8] | Plant response rating, Galium [8] | Plant response rating, Pigweed, Palmer [10, 28] | Plant response rating, Soybean ([12]; 125 g ai/ha) | Plant response rating, Soybean [12, 28] | Plant response rating, Ryegrass, Italian ([17]; 125 g ai/ha) | Plant response rating, Ryegrass, Italian [17, 28] | Plant response rating, Ragweed ([19]; 125 g ai/ha) | Plant response rating, Corn [21] | Plant response rating, Foxtail, Giant ([23]; 125 g ai/ha) | Plant response rating, Foxtail, Giant [23, 28] | Plant response rating, Ryegrass, Italian [24] | Plant response rating, Sedge, Umbrella [27]
60: Plant response rating, Corn ([2]; 125 g ai/ha)
50: Barnyardgrass plant response rating [6] | Horseweed plant response rating [15]
30: Plant response rating, Wheat ([26]; 125 g ai/ha)

C[C@H]1CN(C(=O)c2cc(C3CC3)cc(-n3cncn3)c2)c2cccc(Cl)c2O1 [Compound 136]
80: Galium plant response rating [8] | Plant response rating, Ryegrass, Italian [17, 29]
10: Plant response rating, Soybean [12, 29] | Oat, Wild plant response rating [20] | Plant response rating, Wheat [26, 29]
30: Plant response rating, Corn [2, 28] | Plant response rating, Barnyardgrass ([5]; 125 g ai/ha) | Kochia plant response rating [9] | Plant response rating, Wheat [11] | Plant response rating, Ragweed [16] | Plant response rating, Oat, Wild [18, 28] | Plant response rating, Oat, Wild [20] | Corn plant response rating [21] | Pigweed, Palmer plant response rating [22] | Plant response rating, Wheat [26, 28]
90: Plant response rating, Barnyardgrass ([5]; 500 g ai/ha) | Plant response rating, Blackgrass [13, 28] | Plant response rating, Ryegrass, Italian [17, 28] | Plant response rating, Corn [21] | Plant response rating, Pigweed, Palmer [22] | Plant response rating, Ryegrass, Italian [24] | Blackgrass plant response rating [25]
20: Barnyardgrass plant response rating [6] | Wheat plant response rating [11] | Ragweed plant response rating [16] | Plant response rating, Oat, Wild [18, 29] | Plant response rating, Ragweed [19, 28]
60: Plant response rating, Soybean [12, 28] | Ryegrass, Italian plant response rating [24]
0: Plant response rating, Ducksalad [1] | Plant response rating, Corn [2, 29] | Plant response rating, Kochia [3, 29] | Plant response rating, Barnyardgrass [4] | Plant response rating, Rice [14] | Horseweed plant response rating [15] | Plant response rating, Horseweed [15] | Plant response rating, Ragweed [19, 29] | Plant response rating, Sedge, Umbrella [27]
100: Soybean plant response rating [7] | Plant response rating, Soybean [7] | Plant response rating, Galium [8] | Plant response rating, Pigweed, Palmer [10, 28] | Plant response rating, Blackgrass [25]
70: Plant response rating, Kochia [3, 28] | Plant response rating, Barnyardgrass [6] | Plant response rating, Kochia [9] | Plant response rating, Pigweed, Palmer [10, 29] | Plant response rating, Blackgrass [13, 29]
